Laboratory results reported in patent publication US20220364056A1, “SHORT-CHAIN FATTY ACID PENTANOATE AS ENHANCER FOR CELLULAR THERAPY AND ANTI-TUMOR THERAPY” (PHILIPPS-UNIVERSITÄT MARBURG, priority 2019, published 2022).

Experiments:
STAT5 = assay: IL-2-induced phosphorylation of STAT5 in CTLs, flow cytometry; assay type: cell-based, murine; settings: CTLs generated with pentanoate 3 day, IL-2 50 U/ml
From the text: (§1) (A) experimental setup for investigating CTL persistence in vivo is shown. (B-D) The frequency (B, C) and total cell numbers (D) of transferred T cells (WT CD45.1^+ CTLs, WT CD45.2^+ pentanoate-treated CTLs and Foxp3^+CD45.2^+ Tregs from FIR×tiger mice) in Rag1-deficient mice on days 15 after the adoptive transfer are shown. The co-transferred Foxp3^−CD4^+ cells were excluded from the gate (B, C). In D, n=_3 mice/group/experiment, data from 2 pooled independent experiments are shown. (E) The CFSE label of transferred T cells (WT CD45.1 CTLs, WT CD45.2^+ pentanoate-treated CTLs and CD45.2^+CD4^+ T cells) in Rag1-deficient mice on days 4 after the adoptive transfer are shown (n=3 mice/group/experiment, data pooled from 2 independent experiments are shown). […] (G and H) Frequencies and cell numbers of CD25^+ CD8^+ T cells were analysed by flow cytometry on day 15 after transfer of control CTLs (CD45.1^+) and pentanoate-treated CTLs (CD45.2^+) into Rag1-deficient mice (n=3 mice/group/experiment, data pooled from 2 independent experiments). […] The phosphorylated (p)-STAT5 levels were analysed by flow cytometry (n=5, performed in 3 independent experiments). (J) The secretion of IL-2 in pentanoate-treated CTLs cultured for indicated time points was measured by ELISA (n=4, pooled from 2 independent experiments).

CTLs [1] = assay: extracellular acidification rate (ECAR) of CTLs; assay type: cell-based, murine; settings: 2.5 mM pentanoate, three days
Protocol: (A and B) CTLs were cultured in medium containing 1.0% FCS and treated with pentanoate (2.5 mM) for three days. Representative histogram plots and bar graphs indicate the phoshorylated levels of mTOR (A) and S6 ribosomal protein (B), respectively (n=3 pooled from three independent experiments). (C and D) Human CTLs were cultured in medium containing 1.0% serum and treated with indicated HDACi for three days. Representative histogram plots and bar graphs indicate the phoshorylated levels of mTOR (C) and S6 ribosomal protein (D), respectively (data points represent four individual healthy donors) (E) Measurement of extracellular acidification rate (ECAR) for in vitro generated murine CTLs cultured with or without 2.5 mM pentanoate for three days. ECAR was measured under basal conditions and in response to glucose (10 mM), oligomycin (2 μM), and 2-deoxy-glucose (2-DG, 100 mM). One of three independent experiments is shown.

CTLs [2] = assay: co-transfer of pentanoate-treated and control CTLs into Rag1-deficient mice; assay type: in vivo
From the text: To investigate the capacity of SCFAs on survival and persistence of CD8^+ T cells, we mixed pentanoate-treated CTLs (CD45.2^+) with control CTLs (CD45.1^+) at 1:1 ratio and co-transferred them into Rag1-deficient mice. To better mimic the in vivo tumor microenvironment, we also adoptively co-transferred Tregs (CD45.2^+ from FIR×tiger reporter mice) that are frequently found in solid tumors. In addition, Foxp3^−CD4^+ T cells were co-transferred as the cellular source of IL-2 (FIG. 9, A and B). […] The capacity of CFSE to label proliferative cells was used for in vivo monitoring of CD8^+ T cell proliferation in Rag1-deficient mice after pretreatment with pentanoate. […] Given the importance of CD25 in supporting an effective IL-2R signalling, as well as the proliferation and survival of lymphocytes, we next asked whether pentanoate is capable of modulating CD25 expression in CTLs.
as §1, with “shown.” for “shown. (E) The CFSE label of transferred T cells (WT CD45.1 CTLs, WT CD45.2^+ pentanoate-treated CTLs and CD45.2^+CD4^+ T cells) in Rag1-deficient mice on days 4 after the adoptive transfer are shown (n=3 mice/group/experiment, data pooled from 2 independent experiments are shown).”

SMILES: CCCCC(=O)O [pentanoate]
- STAT5 activity in response to IL-2 (STAT5): stronger STAT5 activity
- extracellular acidification rate (ECAR) (CTLs [1]): increased
- frequencies and numbers of CD25+CD8+ T cells in iLN, mLN and spleen (CTLs [2]; day 15 after transfer, vs control CTLs): increased frequencies and numbers
- in vivo proliferation of CFSE labelled CD8+ T cells (CTLs [2]; days 4 after transfer, vs control CTLs): stronger proliferative ability
- cell number and frequency of transferred CD8+ T lymphocytes (CTLs [2]; days 15 after transfer, without cognate antigen): high cell number and frequency
